Biological target: T1, Mitogen-activated protein kinase kinase kinase 5 (Homo sapiens, UniProt Q99683)
T1 sequence (Q99683 whole entry): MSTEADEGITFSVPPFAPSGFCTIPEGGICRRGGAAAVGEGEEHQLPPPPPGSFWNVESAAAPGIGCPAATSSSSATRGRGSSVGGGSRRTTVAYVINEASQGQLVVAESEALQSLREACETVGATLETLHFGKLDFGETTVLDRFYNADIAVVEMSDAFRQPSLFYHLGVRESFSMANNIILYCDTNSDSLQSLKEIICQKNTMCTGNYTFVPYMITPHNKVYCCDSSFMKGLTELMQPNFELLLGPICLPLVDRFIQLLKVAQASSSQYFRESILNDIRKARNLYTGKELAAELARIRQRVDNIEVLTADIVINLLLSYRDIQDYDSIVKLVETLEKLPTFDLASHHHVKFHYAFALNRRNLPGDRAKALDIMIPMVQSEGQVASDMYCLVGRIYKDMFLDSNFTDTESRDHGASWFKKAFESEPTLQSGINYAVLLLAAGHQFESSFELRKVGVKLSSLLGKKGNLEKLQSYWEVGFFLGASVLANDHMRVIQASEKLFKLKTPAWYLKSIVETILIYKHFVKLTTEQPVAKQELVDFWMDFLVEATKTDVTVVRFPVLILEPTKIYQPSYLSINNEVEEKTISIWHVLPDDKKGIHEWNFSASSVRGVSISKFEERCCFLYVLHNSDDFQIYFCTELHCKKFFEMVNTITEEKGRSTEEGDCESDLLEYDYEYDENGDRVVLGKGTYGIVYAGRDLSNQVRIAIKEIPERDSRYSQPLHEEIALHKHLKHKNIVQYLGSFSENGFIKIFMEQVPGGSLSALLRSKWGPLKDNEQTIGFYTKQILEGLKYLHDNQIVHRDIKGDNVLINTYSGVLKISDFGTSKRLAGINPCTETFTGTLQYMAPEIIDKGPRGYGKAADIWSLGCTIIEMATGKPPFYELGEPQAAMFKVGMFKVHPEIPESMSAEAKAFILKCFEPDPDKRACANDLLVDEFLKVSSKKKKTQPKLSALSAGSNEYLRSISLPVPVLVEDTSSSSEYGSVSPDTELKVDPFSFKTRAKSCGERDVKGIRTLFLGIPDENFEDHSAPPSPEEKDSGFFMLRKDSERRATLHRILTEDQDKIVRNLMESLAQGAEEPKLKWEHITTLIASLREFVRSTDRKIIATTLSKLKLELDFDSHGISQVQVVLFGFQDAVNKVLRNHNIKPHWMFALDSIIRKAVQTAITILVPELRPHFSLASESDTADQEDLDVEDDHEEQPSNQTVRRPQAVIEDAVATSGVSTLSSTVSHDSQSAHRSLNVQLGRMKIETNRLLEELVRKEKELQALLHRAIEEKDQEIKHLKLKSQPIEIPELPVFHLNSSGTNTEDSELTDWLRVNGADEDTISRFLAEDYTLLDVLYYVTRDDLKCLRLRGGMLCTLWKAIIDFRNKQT
Test: Biochemical Assay: The binding of compounds to ASK1 were determined using DiscoverX's proprietary technology. […] The assay is performed by combining three components: DNA-tagged ASK1 kinase; immobilized ligand; and a test compound. The ability of the test compound to compete with the immobilized ligand is measured via quantitative PCR of the DNA tag. […] The liganded beads were blocked with excess biotin and washed with blocking buffer (SeaBlock (Pierce), 1% BSA, 0.05% Tween 20, 1 mM DTT) to remove unbound ligand and to reduce nonspecific binding. […] Kds were determined using an 11-point 3-fold compound dilution series with three DMSO control points. […] The compounds were then diluted directly into the assays such that the final concentration of DMSO was 0.9%. All reactions were performed in polypropylene 384-well plate. […] The kinase concentration in the eluates was measured by qPCR. Most Kds were determined using a compound top concentration=30,000 nM.

| Compound | Kd |
| --- | --- |
| O=C1Nc2cccc(n2)-c2nncn2CCCCOc2ccc(-c3ccc(CCF)nc3)cc21 | < 100 nM |
| Cc1ncc(-c2ccc3c(c2)C(=O)Nc2cccc(n2)-c2nncn2CCCCO3)cc1F | < 100 nM |

— ChEMBL document CHEMBL5728524, “Apoptosis signal-regulating kinase inhibitors and uses thereof” (2021)
